According to patent US20240382506A1, “Means and Methods to Regulate Gut Dysbiosis” (VIB VZW, priority 2021, published 2024):

What was measured:
[1] = system: Salmonella; experiment: Salmonella growth in CT26 cell supernatants; format: cell-based, Salmonella enterica serovar Typhimurium
Protocol: (§1) All mammalian cells were cultured at 5×10^5 cells per ml. Cells were washed with 1× PBS before induction of cell death in the indicated medium. Jurkat cells were cultured in suspension at 5×10^5 cells/ml. After induction of cell death, supernatant was collected and spun at 330 rcf for 5 minutes to remove cellular debris. Unless stated otherwise, the resulting supernatant was filtered using a 0.2 μm syringe filter and either used immediately or frozen at −20° C. for later use. Cells were stained with Annexin V (AV) conjugated to APC or Pac Blue and either Sytox blue, Yoyo-1, or 7AAD (DNA binding dyes) for 15 minutes at room temperature in Annexin V binding buffer (BD). Flow cytometry was performed using the Attune NxT (Invitrogen), the FACS Calibur (BD), the LSR Fortessa (BD), or the LSRII (BD). Data were analyzed using FlowJo v.10 software. All independent experiment values shown are the average values of technical duplicates. ‘% Annexin V^+’ cells include Annexin V^+DNA dye^− and Annexin V^+DNA dye^+ cell populations.
FADD-dependent apoptosis: CT26:FADD clones were incubated with 1 μg/ml doxycycline for 16 hours to induce expression of the construct. Doxycycline was washed away before addition of 10 nM B/B Homodimerizer for 5 hours to induce death. For Caspase inhibition studies, cells were incubated with 30 μM QVD for 1 hour prior to B/B administration and QVD was maintained in the media. […]
OD600 measurements: 4 ml of supernatant or media controls were inoculated with 1-2×10^7 CFU/ml of the indicated bacterial species. Cultures were grown at 37° C. with 200 rpm agitation (aerobic) and bacterial growth was quantified by OD600 measurements using the Ultrospec 10 (VWR) at the indicated time points. […]
(§2) CFU/ml values: 500 μl of supernatant or media controls were inoculated with 1×10^3 CFU of the indicated strain. Cultures were grown at 37° C. with 200 rpm agitation (aerobic) and growth was assessed at the indicated time by serially diluting with 1× PBS and plating onto LB agar (in vitro supernatants) or MacConkey agar (ex vivo primary colonocyte supernatants) to obtain CFU/ml values.

[2] = target: membrane pannexin-1 channels (Homo sapiens, UniProt Q96RD7); details: described in literature; cited from earlier work
Sequence of membrane pannexin-1 channels (Q96RD7 whole entry): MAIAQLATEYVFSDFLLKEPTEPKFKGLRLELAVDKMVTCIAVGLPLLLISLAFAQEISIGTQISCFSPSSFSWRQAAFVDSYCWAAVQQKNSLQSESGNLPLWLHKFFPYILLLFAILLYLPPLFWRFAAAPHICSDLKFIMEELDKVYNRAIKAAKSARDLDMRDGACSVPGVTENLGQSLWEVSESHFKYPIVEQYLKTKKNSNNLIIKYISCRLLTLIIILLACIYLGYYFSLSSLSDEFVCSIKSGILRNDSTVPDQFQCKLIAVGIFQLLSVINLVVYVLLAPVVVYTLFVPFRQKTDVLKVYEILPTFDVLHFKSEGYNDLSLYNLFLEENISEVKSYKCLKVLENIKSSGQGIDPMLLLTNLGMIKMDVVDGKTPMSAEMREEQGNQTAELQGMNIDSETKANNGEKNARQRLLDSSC

[3] = system: Salmonella; format: cell-based, Salmonella enterica serovar Typhimurium
Protocol: Full length colons (from cecum to rectum) were excised from the indicated genotype of mice and cut open longitudinally to flay the colon open. Opened colons were vortexed 2-3 times in sterile 1× PBS to remove fecal content. Colons were then cut horizontally into 5-7 mm long pieces and incubated in DMEM +10% FBS and an antibiotic cocktail containing Ampicillin (100 μg/ml), Chloramphenicol (20 μg/ml), Kanamycin (50 μg/ml), and Streptomycin (100 μg/ml) for 2 hours at 37° C. with 5% CO2. Colonic pieces were then washed 3 times in sterile 1× PBS to remove any traces of the antibiotic cocktail. Individual colonic pieces were then incubated in 1.5 ml Eppendorf tubes containing 500 μl of DMEM+10% FBS+/−2 μM Stauro for 8 hours or +/−20 μg/ml Doxorubicin for 6 hours. For caspase inhibition, 30 μM QVD was added to the 2-hour antibiotic treatment step and was maintained throughout death induction. After death induction, colonic explants were spun at max speed for 5 minutes using a tabletop centrifuge and supernatant was collected. Unfiltered supernatant was used immediately or frozen −20° C. for subsequent use. […] All subsequent experiments (cell death, bacterial growth) utilized explants extracted from a minimum of 3 mice.
as §2

[4] = system: CT26:FADD cells; experiment: CT26:FADD cell death (flow cytometry); format: cell-based, murine
Protocol: as §1
FADD-dependent apoptosis: CT26:FADD clones were incubated with 1 μg/ml doxycycline for 16 hours to induce expression of the construct. Doxycycline was washed away before addition of 10 nM B/B Homodimerizer for 5 hours to induce death. […]

[5] = system: C57BL/6 colonic explants; experiment: Caspase-3 activation in colonic explants (colorimetric assay); format: cell-based, mouse; details: 20 μg/ml Doxo, 6 hours ex vivo
Protocol: Full length colons (from cecum to rectum) were excised from the indicated genotype of mice and cut open longitudinally to flay the colon open. Opened colons were vortexed 2-3 times in sterile 1× PBS to remove fecal content. Colons were then cut horizontally into 5-7 mm long pieces and incubated in DMEM +10% FBS and an antibiotic cocktail containing Ampicillin (100 μg/ml), Chloramphenicol (20 μg/ml), Kanamycin (50 μg/ml), and Streptomycin (100 μg/ml) for 2 hours at 37° C. with 5% CO2. Colonic pieces were then washed 3 times in sterile 1× PBS to remove any traces of the antibiotic cocktail. Individual colonic pieces were then incubated in 1.5 ml Eppendorf tubes containing 500 μl of DMEM+10% FBS+/−2 μM Stauro for 8 hours or +/−20 μg/ml Doxorubicin for 6 hours. For caspase inhibition, 30 μM QVD was added to the 2-hour antibiotic treatment step and was maintained throughout death induction. […]
Caspase-3 activation: Following removal of the supernatant, explant pieces were assessed for caspase-3 activity via the Caspase-3 Colorimetric Activity Assay Kit, DEVD (Sigma) according to the manufacturer's instructions. Colorimetric values were obtained at 405 nm using the iMark™ microplate reader (BioRad) and arbitrary units were calculated from a standard curve using the provided pNA standard.

[6] = system: Enterobacteriaceae; experiment: Bacterial growth in media with or without Doxo; format: cell-based, Salmonella and E. coli (strain HS); details: 9 hours aerobic growth in media with or without Doxo
Protocol: as §2

[7] = system: Salmonella; experiment: Salmonella infection after doxorubicin treatment in mice; format: in vivo, Salmonella enterica serovar Typhimurium; details: day 1 post-infection
[8] = system: E. coli; experiment: E. coli infection after doxorubicin treatment in mice; format: in vivo; details: C57BL/6 mice; data not shown
Protocol: (§3) Doxorubicin treatment. Doxorubicin was given as a single intraperitoneal (ip) injection at 15 mg/kg of mouse body weight while vehicle control (water) was given at similar volumes (approximately 300 μl volumes of water or 1 mg/ml Doxorubicin solution). The next day, mice were infected with 1×10^9 CFU of Salmonella (either single strain of competitive infections, as described above) or 1×10^9 CFU of E. coli. Tissues were harvested at day 1 post-infection and weight loss, total Salmonella burden, and competitive indices were calculated as above. Total Enterobacteriaceae burden, including E. coli, was assessed by plating tissue lysates on MacConkey agar without antibiotics. Uninfected controls were given 1× PBS via oral gavage instead of bacteria, and Endogenous Enterobacteriaceae burden was assessed by plating tissue lysates on MacConkey agar without antibiotics.

[9] = system: endogenous Enterobacteriaceae; experiment: Endogenous Enterobacteriaceae burden in uninfected doxorubicin-treated mice; format: in vivo; details: uninfected C57BL/6 mice, 2 days post-treatment
Protocol: as §3

[10] = Doxorubicin-induced gastrointestinal toxicity in mice; format: in vivo
Protocol: as §3

[11] = system: CT26 cells; experiment: Pyruvate concentration in CT26 supernatants; format: cell-based, murine; details: CT26 cells triggered with staurosporine
Protocol: Shikonin: CT26 cells were pretreated with 5 μM Shikonin (or DMSO vehicle control) for 1 hour. Cells were then washed once with PBS before replacing with fresh media containing the indicated trigger of cell death +/−5 μM Shikonin.
Metabolite detection: Pyruvate, formate, or fructose 1,6-bisphosphate concentrations were determined using the appropriate detection kit per the manufacturer's instructions. For these experiments, mammalian cells were cultured in DMEM without phenol red supplemented with 10% FBS.

[12] = system: Salmonella; experiment: Salmonella gene expression (qPCR) in mammalian cell supernatants; format: cell-based, Salmonella enterica serovar Typhimurium; details: apoptotic supernatants from CT26 and HCT116 cells
Protocol: For all gene expression studies, bacterial cultures were grown to mid logarithmic growth phase (OD600=0.4−0.6), spun down at max speed, and then resuspended in TRIzol™ reagent (ThermoFisher) for immediate extraction or frozen at −80° C. Bacterial RNA was extracted and DNA removed as described using the RiboPure RNA Purification Kit (Thermo Fisher). For RNAseq experiments, ribosomal RNA was removed using Ribo-zero kits (Illumina). For all RNAseq data, sample groups were analyzed in quadruplicates and reads were mapped to the Salmonella Typhimurium SL1344 reference genome (ASM21085v2, EnsEMBL 39).
qPCR: cDNA synthesis was performed using the SensiFast cDNA synthesis kit (GC Biotech). qPCR primers were designed using NCBI Primer Blast. The ΔΔCT values for each independent biological replicate were calculated twice, first using the Salmonella housekeeping gene gmk^55 and then the housekeeping gene strB^56 and the two ΔΔCT values were averaged. Relative fold expression was calculated such that the average of the indicated controls was equal to 1. The endogenous controls for HS E. coli samples were gmk and rpoA^57. All independent experiment values shown are the average values of technical duplicates.

[13] = single ip 15 mg/kg, followed by oral infection
[14] = uninfected mice, 2 days post-treatment

C=CCc1cccc(/C=N/NC(=O)CN2CCN(Cc3ccccc3)CC2)c1O [Pac-1]
bacterial growth in supernatants from treated CT26 cells ([1]; 50 μM Pac-1 24 hours, OD600): enhanced bacterial growth

CCCN(CCC)S(=O)(=O)c1ccc(C(=O)O)cc1 [Probenecid]
membrane pannexin-1 channel inhibition [2]: membrane pannexin-1 channel inhibitor

CC(C)[C@H](NC(=O)c1ccc2ccccc2n1)C(=O)N[C@@H](CC(=O)O)C(=O)COc1c(F)cccc1F [QVD]
Salmonella growth in CT26:FADD supernatants with caspase inhibition ([1]; CT26:FADD cells treated with QVD, 8 hours aerobic growth): reduced Salmonella growth back to media and live cell supernatant controls | Salmonella growth in dying colonocyte supernatant with caspase inhibition ([3]; colonic explants treated with QVD and Stauro together, 30 μM QVD): restricted Salmonella growth to live supernatant control levels | cell death ([4]; 30 μM QVD, 5 hours post-death induction with B/B dimerizer): reduced cell death | apoptotic caspase activation ([4]; QVD, data not shown): reduced

C[C@H](Cn1cnc2c(N)ncnc21)OCP(=O)(O)O [Tenofovir]
membrane pannexin-1 channel inhibition [2]: inhibit membrane pannexin-1 channels

N[C@@H]1[C@H]2CN(c3nc4c(cc3F)c(=O)c(C(=O)O)cn4-c3ccc(F)cc3F)C[C@@H]12 [Trovafloxacin]
membrane pannexin-1 channel inhibition [2]: membrane pannexin-1 channel inhibitor

COc1cccc2c1C(=O)c1c(O)c3c(c(O)c1C2=O)C[C@@](O)(C(=O)CO)C[C@@H]3O[C@H]1C[C@H](N)[C@H](O)[C@H](C)O1 [doxorubicin]
caspase-3 activation [5]: induced caspase-3 activation | direct action on bacterial growth (CFU) [6]: direct antimicrobial action | Salmonella outgrowth in supernatants of treated colonic explants ([3]; 20 μg/ml Doxo ex vivo, 9 hours aerobic growth): directly enhanced Salmonella outgrowth | bacterial burden following infection with Salmonella ([7]; C57BL/6 mice): staggering increases in bacterial burden | WT Salmonella compared to ΔpflB mutant (competitive index) ([7]; control mice after doxorubicin treatment): significantly enriched | bacterial burden following infection with E. coli [8]: staggering increases in bacterial burden | endogenous Enterobacteriaceae CFU [9]: potent expansion of the endogenous Enterobacteriaceae | cecal weight [10, 13]: significant reduction in cecal weight | colon length [10, 13]: shortening of the colon | caspase-3 activation in the ilea [10, 14]: caspase-3 activation in the ilea | damage to ceca and colons [10, 14]: sufficient to induce damage to the ceca and colons

CC(=O)S[C@@H]1CC2=CC(=O)CC[C@]2(C)[C@H]2CC[C@@]3(C)[C@@H](CC[C@@]34CCC(=O)O4)[C@H]12 [spironolactone, Spironolactone]
membrane pannexin-1 channel inhibition [2]: membrane pannexin-I channel inhibitor

CN[C@@H]1C[C@H]2O[C@@](C)([C@@H]1OC)n1c3ccccc3c3c4c(c5c6ccccc6n2c5c31)C(=O)NC4 [staurosporine, Staurosporine]
Salmonella growth in supernatants of apoptotic CT26 cells compared to control treatments ([1]; 1 μM staurosporine 24 hours, 9 hours aerobic growth): strongly induced Salmonella growth | Salmonella growth in apoptotic supernatants compared to live (vehicle-treated) colonocyte supernatants ([3]; C57BL/6 colonic explants, 2 μM Stauro 8 hours ex vivo, CFU after 9 hours aerobic growth): ~10 fold | pyruvate released compared to live cell supernatants or fresh media controls [11]: significantly higher levels of pyruvate | Salmonella cadB expression [12]: significantly increased the expression | Salmonella pflB expression [12]: significantly increased the expression
